# Publication PMC11397024, “Strategic Fluorination to Achieve a Potent, Selective, Metabolically Stable, and Orally Bioavailable Inhibitor of CSNK2” (Molecules, 2024)
# Assays:
# Experiment in all cases: NanoBRET K192
# Assay type in all cases: cell-based
# STK17B = molecular target: T1, STK17B (Homo sapiens, UniProt O94768); conditions: HEK293
# T1 construct: purchased Promega (NanoBRET Target Engagement K192 Kinase Selectivity System)
# Method: (§1) The K192 selectivity assay was run according to the Draft Promega technical manual, NanoBRET^TM Target Engagement K192 Kinase Selectivity System. Reagents were supplied by Promega (Promega NP 4101). For the assay, DNA from the prepared kinase vector panel plates A and B were mixed with Fugene in 96-well plates (Corning 3917) and incubated at room temperature for 30 min. The NanoLuc® Low control vector pNL1.1.CMV [Nluc/CMV] Vector (Cat.# N1091) and the transfection control vector NanoLuc®-HIPK2 Fusion Vector (Cat.# NV3221) were used as controls.
# (§2) HEK293 cells were grown to 75–95% confluency in DMEM (Gibco 11995-065) supplemented with FBS (Avantor 97068-085) at 37 °C in […]. On the first day of the assay, cells were harvested and resuspended in Opti-MEM (Gibco 11058-021) supplemented with 1% FBS (Avantor 97068-085) at 2.5 × 10^5 cells per mL. A volume of 60 μL of cell suspension was mixed with 10 μL of prepared DNA (10X concentration) and 30 μL of Fugene (30 μL/mL in Opti-MEM) as outlined by Promega and incubated overnight at 37 °C in a 5% CO2 incubator.
# (§3) On day two of the assay, 5 μL of 20X K10 tracer was prepared and added at concentrations recommended by Promega. Then, 10 μL of test compounds at 100 μM in Opti-MEM (diluted from a 10 mM solution in DMSO) was added to the test wells while an equivalent volume of Opti-MEM was added to the high-control wells. Plates were kept at 37 °C in a 5% CO2 incubator for two hours. After two hours, plates were allowed to equilibrate to room temperature for 15 min. A solution of 3X Complete Substrate plus Inhibitor Solution was freshly prepared, consisting of a 1:166 dilution of NanoBRET™ Nano-Glo® Substrate plus a 1:500 dilution of Extracellular NanoLuc® Inhibitor in Opti-MEM® medium without serum or phenol red. A 50 μL volume of the 3X Complete Substrate plus Inhibitor Solution was added to each assay well, including control wells. After 2–3 min, the plate was shaken at 300 RPM for 10 s, and the donor emission wavelength (450 nm) and acceptor emission wavelength (610 nm) were measured using the Glomax® Discover System.
# (§4) As a quality check, the donor signal-to-background ratio was calculated for each individual kinase by dividing the mean donor signal for each kinase by the mean donor signal for the signal-to-background control wells. Fractional occupancy of the test drug for each kinase was determined using the following formula:Occupancy (%) = [1 − (Sample − Bottom)/(Top − Bottom)] × 100 where
# NTRK2 = molecular target: T2, NTRK2 (Homo sapiens, UniProt Q16620); conditions: HEK293
# T2 construct: purchased Promega (NanoBRET Target Engagement K192 Kinase Selectivity System)
# Method: as §1, §2, §3, §4
# TLK2 = molecular target: T3, TLK2 (Homo sapiens, UniProt Q86UE8); conditions: HEK293
# T3 construct: purchased Promega (NanoBRET Target Engagement K192 Kinase Selectivity System)
# Method: as §1, §2, §3, §4
# JAK2 (V617F) = molecular target: T4, JAK2 (V617F) (Homo sapiens, UniProt O60674, V617F); conditions: HEK293
# T4 construct: purchased Promega (NanoBRET Target Engagement K192 Kinase Selectivity System)
# Method: as §1, §2, §3, §4
# FGFR2 = molecular target: T5, FGFR2 (Homo sapiens, UniProt P21802); conditions: HEK293
# T5 construct: host or cells: HEK293
# Method: as §1, §2, §3, §4
# CDK17 + Y = molecular target: T6, CDK17 + Y (Homo sapiens, UniProt Q00537); conditions: HEK293
# T6 construct: purchased Promega (NanoBRET Target Engagement K192 Kinase Selectivity System)
# Method: as §1, §2, §3, §4
# FYN = molecular target: T7, FYN (Homo sapiens, UniProt P06241); conditions: HEK293
# T7 construct: purchased Promega (NanoBRET Target Engagement K192 Kinase Selectivity System)
# Method: as §1, §2, §3, §4
# PTK2B = molecular target: T8, PTK2B (Homo sapiens, UniProt Q14289); conditions: HEK293
# T8 construct: purchased Promega (NanoBRET Target Engagement K192 Kinase Selectivity System)
# Method: as §1, §2, §3, §4
# NTRK1v1 = molecular target: T9, NTRK1v1 (Homo sapiens, UniProt P04629); conditions: HEK293
# T9 construct: purchased Promega (NanoBRET Target Engagement K192 Kinase Selectivity System)
# Method: as §1, §2, §3, §4
# CSNK2A2 = molecular target: T10, CSNK2A2 (Homo sapiens, UniProt P19784)
# T10 construct: expressed in transfected cells; host or cells: HEK293
# Method: as §1, §2, §3, §4
# MERTK = molecular target: T11, MERTK (Homo sapiens, UniProt Q12866); conditions: HEK293
# T11 construct: purchased Promega (NanoBRET Target Engagement K192 Kinase Selectivity System)
# Method: as §1, §2, §3, §4
# EPHB1 = molecular target: T12, EPHB1 (Homo sapiens, UniProt P54762); conditions: HEK293
# T12 construct: purchased Promega (NanoBRET Target Engagement K192 Kinase Selectivity System)
# Method: as §1, §2, §3, §4
# CAMK2D = molecular target: T13, CAMK2D (Homo sapiens, UniProt Q13557); conditions: HEK293
# T13 construct: purchased Promega (NanoBRET Target Engagement K192 Kinase Selectivity System)
# Method: as §1, §2, §3, §4
# PAK6 = molecular target: T14, PAK6 (Homo sapiens, UniProt Q9NQU5); conditions: HEK293
# T14 construct: purchased Promega (NanoBRET Target Engagement K192 Kinase Selectivity System)
# Method: as §1, §2, §3, §4
# CDKL5 = molecular target: T15, CDKL5 (Homo sapiens, UniProt O76039); conditions: HEK293
# T15 construct: purchased Promega (NanoBRET Target Engagement K192 Kinase Selectivity System)
# Method: as §1, §2, §3, §4
# RIPK1 = molecular target: T16, RIPK1 (Homo sapiens, UniProt Q13546); conditions: HEK293
# T16 construct: purchased Promega (NanoBRET Target Engagement K192 Kinase Selectivity System)
# Method: as §1, §2, §3, §4
# IRAK4 = molecular target: T17, IRAK4 (Homo sapiens, UniProt Q9NWZ3); conditions: HEK293
# T17 construct: purchased Promega (NanoBRET Target Engagement K192 Kinase Selectivity System)
# Method: as §1, §2, §3, §4
# TBK1 = molecular target: T18, TBK1 (Homo sapiens, UniProt Q9UHD2); conditions: HEK293
# T18 construct: purchased Promega (NanoBRET Target Engagement K192 Kinase Selectivity System)
# Method: as §1, §2, §3, §4
# CDK15 + Y = molecular target: T19, CDK15 + Y (Homo sapiens, UniProt Q96Q40); conditions: HEK293
# T19 construct: purchased Promega (NanoBRET Target Engagement K192 Kinase Selectivity System)
# Method: as §1, §2, §3, §4
# ABL2 = molecular target: T20, ABL2 (Homo sapiens, UniProt P42684); conditions: HEK293
# T20 construct: purchased Promega (NanoBRET Target Engagement K192 Kinase Selectivity System)
# Method: as §1, §2, §3, §4
# RET = molecular target: T21, RET (Homo sapiens, UniProt P07949); conditions: HEK293
# T21 construct: purchased Promega (NanoBRET Target Engagement K192 Kinase Selectivity System)
# Method: as §1, §2, §3, §4
# PRKX = molecular target: T22, PRKX (Homo sapiens, UniProt P51817); conditions: HEK293
# T22 construct: purchased Promega (NanoBRET Target Engagement K192 Kinase Selectivity System)
# Method: as §1, §2, §3, §4
# MYLK3 = molecular target: T23, MYLK3 (Homo sapiens, UniProt Q32MK0); conditions: HEK293
# T23 construct: purchased Promega (NanoBRET Target Engagement K192 Kinase Selectivity System)
# Method: as §1, §2, §3, §4
# MAST4 = molecular target: T24, MAST4 (Homo sapiens, UniProt O15021); conditions: HEK293
# T24 construct: purchased Promega (NanoBRET Target Engagement K192 Kinase Selectivity System)
# Method: as §1, §2, §3, §4
# FGFR3 = molecular target: T25, FGFR3 (Homo sapiens, UniProt P22607); conditions: HEK293
# T25 construct: purchased Promega (NanoBRET Target Engagement K192 Kinase Selectivity System)
# Method: as §1, §2, §3, §4
# RPS6KA2 = molecular target: T26, RPS6KA2 (Homo sapiens, UniProt Q15349); conditions: HEK293
# T26 construct: purchased Promega (NanoBRET Target Engagement K192 Kinase Selectivity System)
# Method: as §1, §2, §3, §4
# TNK1 = molecular target: T27, TNK1 (Homo sapiens, UniProt Q13470); conditions: HEK293
# T27 construct: purchased Promega (NanoBRET Target Engagement K192 Kinase Selectivity System)
# Method: as §1, §2, §3, §4
# T10 sequence (P19784 whole entry): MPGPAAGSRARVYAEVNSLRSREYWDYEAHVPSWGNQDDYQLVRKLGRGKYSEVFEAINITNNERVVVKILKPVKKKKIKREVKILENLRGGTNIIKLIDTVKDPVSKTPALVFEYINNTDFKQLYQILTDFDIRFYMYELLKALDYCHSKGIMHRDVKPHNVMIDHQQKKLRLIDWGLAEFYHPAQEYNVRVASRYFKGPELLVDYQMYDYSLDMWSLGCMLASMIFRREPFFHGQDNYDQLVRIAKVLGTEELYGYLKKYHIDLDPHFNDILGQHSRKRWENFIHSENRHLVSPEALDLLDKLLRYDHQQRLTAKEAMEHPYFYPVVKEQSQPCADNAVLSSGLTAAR
# T13 sequence (Q13557 whole entry): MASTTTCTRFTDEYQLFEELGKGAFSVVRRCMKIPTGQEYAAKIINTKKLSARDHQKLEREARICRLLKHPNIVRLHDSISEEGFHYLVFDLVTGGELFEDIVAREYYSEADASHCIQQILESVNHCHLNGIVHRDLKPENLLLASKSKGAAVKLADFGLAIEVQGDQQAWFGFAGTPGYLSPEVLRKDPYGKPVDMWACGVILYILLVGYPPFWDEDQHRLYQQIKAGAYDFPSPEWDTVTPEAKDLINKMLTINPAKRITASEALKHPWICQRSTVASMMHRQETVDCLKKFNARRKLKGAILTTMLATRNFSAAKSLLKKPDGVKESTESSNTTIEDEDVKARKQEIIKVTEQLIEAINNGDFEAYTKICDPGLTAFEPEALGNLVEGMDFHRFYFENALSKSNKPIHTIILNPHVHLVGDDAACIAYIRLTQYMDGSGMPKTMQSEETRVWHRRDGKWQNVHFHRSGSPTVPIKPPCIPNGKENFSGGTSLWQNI
# T24 sequence (O15021 whole entry): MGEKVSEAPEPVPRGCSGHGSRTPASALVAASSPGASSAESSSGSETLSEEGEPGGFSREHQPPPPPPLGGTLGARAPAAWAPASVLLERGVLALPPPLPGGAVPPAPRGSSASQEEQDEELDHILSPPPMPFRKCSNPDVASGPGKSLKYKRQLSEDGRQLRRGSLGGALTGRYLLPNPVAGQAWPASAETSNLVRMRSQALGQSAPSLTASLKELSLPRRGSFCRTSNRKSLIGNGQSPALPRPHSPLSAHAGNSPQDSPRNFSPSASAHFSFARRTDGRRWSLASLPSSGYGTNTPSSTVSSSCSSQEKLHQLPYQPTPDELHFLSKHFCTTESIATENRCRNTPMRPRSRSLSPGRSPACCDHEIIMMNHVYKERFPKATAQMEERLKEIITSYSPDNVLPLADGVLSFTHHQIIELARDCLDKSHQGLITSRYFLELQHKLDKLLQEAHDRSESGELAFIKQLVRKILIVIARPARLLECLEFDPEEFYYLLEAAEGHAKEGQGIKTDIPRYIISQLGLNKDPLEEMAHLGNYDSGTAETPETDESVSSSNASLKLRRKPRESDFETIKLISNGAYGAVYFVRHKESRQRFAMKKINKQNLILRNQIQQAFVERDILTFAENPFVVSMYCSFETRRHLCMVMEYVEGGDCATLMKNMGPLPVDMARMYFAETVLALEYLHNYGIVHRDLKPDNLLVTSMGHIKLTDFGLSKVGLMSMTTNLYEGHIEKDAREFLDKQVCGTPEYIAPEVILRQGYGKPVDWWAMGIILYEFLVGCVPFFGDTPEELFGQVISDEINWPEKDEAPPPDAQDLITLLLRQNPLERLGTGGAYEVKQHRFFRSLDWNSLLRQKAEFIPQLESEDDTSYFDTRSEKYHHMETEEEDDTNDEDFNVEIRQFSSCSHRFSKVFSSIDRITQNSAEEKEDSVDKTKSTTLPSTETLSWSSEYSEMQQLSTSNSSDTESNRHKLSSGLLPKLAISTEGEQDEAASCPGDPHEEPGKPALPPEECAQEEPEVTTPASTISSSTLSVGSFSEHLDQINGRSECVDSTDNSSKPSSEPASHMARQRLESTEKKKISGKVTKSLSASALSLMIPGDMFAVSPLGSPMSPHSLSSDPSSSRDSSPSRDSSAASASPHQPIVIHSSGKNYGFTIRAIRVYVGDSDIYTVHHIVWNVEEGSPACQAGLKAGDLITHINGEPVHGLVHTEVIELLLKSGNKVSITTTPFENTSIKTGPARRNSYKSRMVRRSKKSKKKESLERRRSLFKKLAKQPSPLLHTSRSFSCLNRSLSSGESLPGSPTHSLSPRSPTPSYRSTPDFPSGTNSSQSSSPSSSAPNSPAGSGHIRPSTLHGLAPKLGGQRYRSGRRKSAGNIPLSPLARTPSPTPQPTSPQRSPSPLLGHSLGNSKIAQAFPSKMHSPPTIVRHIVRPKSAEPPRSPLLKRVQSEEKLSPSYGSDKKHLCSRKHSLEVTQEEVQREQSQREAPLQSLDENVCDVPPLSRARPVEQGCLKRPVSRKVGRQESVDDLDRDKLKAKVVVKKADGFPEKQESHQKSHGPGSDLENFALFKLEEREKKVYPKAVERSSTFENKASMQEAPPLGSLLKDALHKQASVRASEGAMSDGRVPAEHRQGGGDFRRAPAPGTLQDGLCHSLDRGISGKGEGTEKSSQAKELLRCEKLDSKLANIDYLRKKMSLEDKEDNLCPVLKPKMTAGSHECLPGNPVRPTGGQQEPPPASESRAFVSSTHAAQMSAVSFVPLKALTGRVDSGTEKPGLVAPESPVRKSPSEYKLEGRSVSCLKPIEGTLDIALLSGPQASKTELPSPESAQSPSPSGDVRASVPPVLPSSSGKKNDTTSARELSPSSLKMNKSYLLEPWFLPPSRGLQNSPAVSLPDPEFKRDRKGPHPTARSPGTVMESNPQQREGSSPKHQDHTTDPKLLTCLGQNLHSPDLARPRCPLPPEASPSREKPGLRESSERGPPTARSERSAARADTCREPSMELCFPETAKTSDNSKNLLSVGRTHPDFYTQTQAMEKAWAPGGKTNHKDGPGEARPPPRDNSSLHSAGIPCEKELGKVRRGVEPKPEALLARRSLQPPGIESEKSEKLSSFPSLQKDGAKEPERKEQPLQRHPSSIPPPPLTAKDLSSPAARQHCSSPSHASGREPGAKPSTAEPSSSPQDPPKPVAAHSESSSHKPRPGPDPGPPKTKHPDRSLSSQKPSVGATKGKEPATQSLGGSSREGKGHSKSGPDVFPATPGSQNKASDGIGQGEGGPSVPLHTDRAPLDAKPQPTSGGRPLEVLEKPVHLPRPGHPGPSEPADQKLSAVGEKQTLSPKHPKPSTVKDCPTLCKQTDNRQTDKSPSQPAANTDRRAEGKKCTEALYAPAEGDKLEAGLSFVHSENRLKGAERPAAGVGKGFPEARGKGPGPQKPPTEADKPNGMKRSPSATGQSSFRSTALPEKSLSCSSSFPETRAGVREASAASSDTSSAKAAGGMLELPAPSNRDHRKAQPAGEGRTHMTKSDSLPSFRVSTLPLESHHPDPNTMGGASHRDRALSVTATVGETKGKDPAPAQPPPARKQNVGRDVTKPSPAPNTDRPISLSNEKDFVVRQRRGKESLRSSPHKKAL
# T15 sequence (O76039 whole entry): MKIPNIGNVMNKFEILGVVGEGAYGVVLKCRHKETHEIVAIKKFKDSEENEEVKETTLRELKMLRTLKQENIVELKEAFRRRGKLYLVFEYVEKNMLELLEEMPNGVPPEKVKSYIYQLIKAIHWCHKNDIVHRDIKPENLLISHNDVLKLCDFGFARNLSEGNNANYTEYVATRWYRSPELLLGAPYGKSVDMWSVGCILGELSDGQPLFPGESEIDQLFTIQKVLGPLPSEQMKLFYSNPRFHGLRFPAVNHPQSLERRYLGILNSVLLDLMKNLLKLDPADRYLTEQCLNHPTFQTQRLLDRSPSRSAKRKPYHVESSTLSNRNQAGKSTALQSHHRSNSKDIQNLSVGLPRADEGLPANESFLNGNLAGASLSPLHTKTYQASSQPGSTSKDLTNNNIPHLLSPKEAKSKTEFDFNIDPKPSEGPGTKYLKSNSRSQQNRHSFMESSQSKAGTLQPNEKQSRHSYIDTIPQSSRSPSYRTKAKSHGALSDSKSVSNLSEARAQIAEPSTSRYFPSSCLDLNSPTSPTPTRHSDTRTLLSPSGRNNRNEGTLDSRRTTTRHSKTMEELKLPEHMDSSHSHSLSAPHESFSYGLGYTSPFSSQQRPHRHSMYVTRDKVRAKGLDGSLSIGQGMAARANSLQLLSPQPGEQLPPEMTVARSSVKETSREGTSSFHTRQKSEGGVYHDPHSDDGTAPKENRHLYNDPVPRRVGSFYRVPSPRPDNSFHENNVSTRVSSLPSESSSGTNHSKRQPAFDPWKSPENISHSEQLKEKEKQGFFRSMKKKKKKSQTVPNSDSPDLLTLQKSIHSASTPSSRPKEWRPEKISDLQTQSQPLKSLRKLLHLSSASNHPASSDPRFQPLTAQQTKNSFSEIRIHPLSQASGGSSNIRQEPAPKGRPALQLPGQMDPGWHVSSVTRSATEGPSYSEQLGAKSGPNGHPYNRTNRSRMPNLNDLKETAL
# T7 sequence (P06241 whole entry): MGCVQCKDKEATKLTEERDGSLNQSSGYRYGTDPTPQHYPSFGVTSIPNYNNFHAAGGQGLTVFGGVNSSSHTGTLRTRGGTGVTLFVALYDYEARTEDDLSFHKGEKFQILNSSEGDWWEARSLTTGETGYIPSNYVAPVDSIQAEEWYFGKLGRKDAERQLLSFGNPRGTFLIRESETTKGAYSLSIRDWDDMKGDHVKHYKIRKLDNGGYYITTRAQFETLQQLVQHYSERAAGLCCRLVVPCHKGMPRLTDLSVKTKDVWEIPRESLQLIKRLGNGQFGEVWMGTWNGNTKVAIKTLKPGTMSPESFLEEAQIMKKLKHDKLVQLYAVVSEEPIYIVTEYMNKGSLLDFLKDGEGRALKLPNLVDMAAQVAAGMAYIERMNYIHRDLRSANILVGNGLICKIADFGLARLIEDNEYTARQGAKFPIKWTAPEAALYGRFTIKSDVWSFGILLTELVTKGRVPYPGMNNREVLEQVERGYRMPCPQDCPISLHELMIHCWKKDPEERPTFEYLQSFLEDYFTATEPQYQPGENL
smiles,measurement,setting,value
"CCC(=O)Nc1cc(Nc2cc(NC3CC3)n3ncc(C#N)c3n2)c(F)cc1N1CCC[C@H](NC)C1 [Compound 2, (S)-N-(5-((3-cyano-7-(cyclopropylamino)pyrazolo[1,5-a]pyrimidin-5-yl)amino)-4-fluoro-2-(3-(methylamino)piperidin-1-yl)phenyl)propionamide]",receptor occupancy at 10 µM,STK17B,45.5%
same,receptor occupancy at 10 µM,NTRK2,-0.1%
same,receptor occupancy at 10 µM,TLK2,4.6%
same,receptor occupancy at 10 µM,JAK2 (V617F),13.1%
same,receptor occupancy at 10 µM,FGFR2,-2.9%
same,receptor occupancy at 10 µM,CDK17 + Y,20.2%
same,receptor occupancy at 10 µM,FYN,18.1%
same,receptor occupancy at 10 µM,PTK2B,-1.6%
same,receptor occupancy at 10 µM,NTRK1v1,4.6%
same,% occupancy at 10 μM,"CSNK2A2; CSNK2A2, HEK293",97%
same,receptor occupancy at 10 µM,"CSNK2A2; HEK293, CSNK2A2",96.9%
same,receptor occupancy at 10 µM,MERTK,4.2%
same,receptor occupancy at 10 µM,EPHB1,4.7%
same,receptor occupancy at 10 µM,CAMK2D,18.4%
same,receptor occupancy at 10 µM,PAK6,15.3%
same,receptor occupancy at 10 µM,CDKL5,17.2%
same,receptor occupancy at 10 µM,RIPK1,9.1%
same,receptor occupancy at 10 µM,IRAK4,9.2%
same,receptor occupancy at 10 µM,TBK1,18.5%
same,receptor occupancy at 10 µM,CDK15 + Y,26.5%
same,receptor occupancy at 10 µM,ABL2,9.4%
same,receptor occupancy at 10 µM,RET,1.8%
same,receptor occupancy at 10 µM,PRKX,10.6%
same,receptor occupancy at 10 µM,MYLK3,0.4%
same,receptor occupancy at 10 µM,MAST4,11.4%
same,receptor occupancy at 10 µM,FGFR3,-0.7%
same,receptor occupancy at 10 µM,RPS6KA2,2.4%
same,receptor occupancy at 10 µM,TNK1,6.8%
